By Ki is commonly meant a dissociation constant, usually derived from enzyme kinetics or from competition with a known ligand.

In one data set the target is T1, mouse GnRH receptors (Mus musculus, UniProt Q01776).
T1 construct: expressed in transfected cells; host or cells: HEK 293 cells, stably transfected; membranes
T1 sequence (Q01776 1-327): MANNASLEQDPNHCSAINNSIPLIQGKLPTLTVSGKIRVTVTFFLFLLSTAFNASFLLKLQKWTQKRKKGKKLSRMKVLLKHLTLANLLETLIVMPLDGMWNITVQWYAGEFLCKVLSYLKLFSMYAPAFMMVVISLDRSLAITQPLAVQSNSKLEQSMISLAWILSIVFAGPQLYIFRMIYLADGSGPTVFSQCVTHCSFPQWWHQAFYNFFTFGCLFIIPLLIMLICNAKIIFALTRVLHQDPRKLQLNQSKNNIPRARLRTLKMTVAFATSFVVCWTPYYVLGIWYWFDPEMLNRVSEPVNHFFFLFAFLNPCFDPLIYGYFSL
Description: Radioligand binding: inhibition of 125I-GnRH-A binding to mouse GnRH receptor membranes. The following applies: HEK 293 cell membranes. As to the method: HEK 293 cells stably transfected with mouse or human GnRH receptors as described above were grown in Dulbecco's high-glucose, modified Eagle's medium (DMEM) supplemented with 0.2% G418, 10% fetal bovine serum (FBS) and 100 U/mL penicillin/streptomycin. GH3 cells stably transfected with the rat GnRH receptor (GGH3) were provided by Dr. William Chin (Harvard Medical School, Boston, Mass.). These cells have been extensively characterized previously (Kaiser et al., 1997). The cells were grown in low glucose DMEM containing: 100U/mL penicillin/streptomycin, 0.6% G418 and 10% heat-inactivated FBS.
HEK 293 cells containing mouse or human receptors, or rat pituitaries (Pel Freez Biologicals, Rogers, Ark.) were homogenized in buffer A containing: 50 mM Tris (pH 7.4), 0.32 M sucrose, 2 mM EGTA, 1 mM PMSF, 5 μg/ml aprotinen, 5 μg/ml Pepstatin A, and 1 μg/ml leupeptin. Homogenized cells were centrifuged at 4° C. at 20,000×g for 25 minutes, re-suspended in buffer A and re-centrifuged at 4° C. at 20,000×g for an additional 25 minutes. Total membrane protein was determined with a BCA kit (Pierce, Rockford, Ill.). Membranes were stored at −70° C. at a final membrane protein concentration of approximately 5 mg/ml.
The radioiodinated agonist analog of GnRH, [des-Gly^10,D-Ala^6]GnRH ethylamide (^125I-GnRH-A), was used as the radioligand. […] The reaction mixture was vortexed and incubated for 1 minute at room temperature. After one minute, the mixture was vortexed and allowed to incubate for an additional minute. 2 ml of 0.5 M acetic acid/1% BSA was added to the reaction tube and the mixture was added to a C18 Sep-Pak cartridge. The cartridge was washed with subsequent washes of 5 ml H2O and 5 ml 0.5 M acetic acid and then eluted with 5×1 ml of 60% CH3CN/40% 0.5 M acetic acid. The eluate was diluted with 3× volume of HPLC buffer A (0.1% TFA in H2O) and loaded onto a C18 column. The iodinated product was eluted over 20-25 min with a gradient of 25-100% CH3CN containing 0.1% TFA. The radioactive fractions (750 μl/fraction) were collected into clean polypropylene tubes containing 100 μl of 10% BSA. Fractions were assessed for biological activity by radioligand binding. Specific activity of the radioligand was approximately 2200 Ci/mmol.
Membranes were diluted to 0.01-0.5 mg/ml (depending upon the species of receptor) with assay buffer containing 50 mM HEPES (pH 7.4), 1 mM EDTA, 2.5 mM MgCl2, and 0.1% BSA. Membranes (diluted to utilize similar receptor numbers between assays) were incubated with approximately 0.04-0.06 nM ^125I-GnRH-A in the presence or absence of competing agents (0.1-10,000 nM) in a total volume of 200 μl in 96-well polypropylene plates for 1 hour at room temperature. Assays were stopped by rapid filtration onto 96-well GF/C filters soaked in 0.1% polyethylenimine (PEI) utilizing a Packard 96-well cell harvester. Filters were washed three times with ice-cold PBS (50 mM NaPO4, 0.9% NaCl, 2 mM MgCl2, and 0.02% NaN3, pH 7.4). 35 μl of scintillation cocktail was added to each filter well and filters were counted on a Packard Topcount. Control dose-response curves were generated to GnRH (0.1 nM-100 nM) in each competition binding experiment. Ki values were calculated from IC50 values according to Cheng et al., Biochemical Pharmacol. 22: 3099-3108, 1973. [formula]

For a further data set, the target named is T2, human GnRH receptors (Homo sapiens, UniProt P30968).
T2 construct: expressed in transfected cells; host or cells: HEK 293 cells, stably transfected; membranes
T2 sequence (P30968 1-328): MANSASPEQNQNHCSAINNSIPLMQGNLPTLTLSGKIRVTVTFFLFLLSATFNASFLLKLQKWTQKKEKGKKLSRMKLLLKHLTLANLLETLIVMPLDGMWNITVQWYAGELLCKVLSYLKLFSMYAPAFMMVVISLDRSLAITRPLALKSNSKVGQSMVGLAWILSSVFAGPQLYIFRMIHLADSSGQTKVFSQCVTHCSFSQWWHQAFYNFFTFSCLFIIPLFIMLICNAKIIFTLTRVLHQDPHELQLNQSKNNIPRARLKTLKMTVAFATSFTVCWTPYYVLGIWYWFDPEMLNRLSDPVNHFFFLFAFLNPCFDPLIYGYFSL
Nature of the data set: Radioligand binding: inhibition of 125I-GnRH-A binding to human GnRH receptor membranes. The following applies: HEK 293 cell membranes. The procedure, abridged: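 Membranes from rat pituitaries, or HEK 293 cells stably expressing mouse or human receptor, incubated 1 hour at room temperature with ~0.04-0.06 nM radioligand (HEPES pH 7.4, EDTA, MgCl2, BSA) and competitor at 0.1-10,000 nM. Bound ligand collected by GF/C filtration and counted; Ki derived from IC50 by Cheng-Prusoff.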

A short description of the next data set: Rat plasma % remain. In kind it is in vitro ADME.
Data set [1] is described as follows: In vitro metabolism: disappearance of parent compound in human liver microsomes. The data set is classed as in vitro ADME. To be noted: 5 uM compound, 0.5 mg/ml protein, 2 mM NADPH, 30 minutes 37° C. The essentials:
(§1)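 Microsomes from human, rat (male, female), dog and monkey liver incubated with 5 uM compound, 0.5 mg/ml protein and 2 mM NADPH in 50 mM K phosphate, pH 7.4, for 30 min at 37° C. Reaction stopped with acetonitrile; parent compound remaining measured by LC-MS.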
On the technique in general: Microsomes from liver hold many membrane-bound enzymes, among them those of drug oxidation.

The nature of data set [2]: In vitro metabolism: disappearance of parent compound in monkey liver microsomes. The data set is classed as in vitro ADME. The following applies: 5 uM compound, 30 minutes 37° C. The procedure, abridged:
as §1

For `COc1nc(OC)c(NC(=O)c2ccc(Cc3cc4c(cc3C)C(C)(C)OC4(C)C)o2)c(OC)n1` [Example A1, 5-(1,1,3,3,6-Pentamethyl-1,3-dihydro-isobenzofuran-5-ylmethyl)-furan-2-carboxylic Acid (2,4,6-trimethoxy-pyrimidin-5-yl)-amide], the inhibition constant Ki was found to be 4.2 nM on mouse GnRH receptors and 4.6 nM on human GnRH receptors. For the same compound, the “Rat plasma % remain” value in “Rat plasma % remain” is recorded as 100%. In addition, the “Human % rem. 30′” value in data set [1] was determined as 60%. Also, in data set [2], the Monkey % rem. came out at 0%.

As to `COc1nc(OCCO)nc(OC)c1NC(=O)c1ccc(Cc2cc3c(cc2C)C(C)(C)OC3(C)C)o1` [Example A3, 5-(1,1,3,3,6-Pentamethyl-1,3-dihydro-isobenzofuran-5-ylmethyl)-furan-2-carboxylic acid [2-(2-hydroxy-ethoxy)-4,6-dimethoxy-pyrimidin-5-yl]-amide], the Ki at human GnRH receptors was 7.7 nM. In addition, the “Rat plasma % remain” value in the data set “Rat plasma % remain” is reported as 100%. For the same compound, in data set [1], the “Human % rem. 30′” value turned out to be 83%. In data set [2], the Monkey % rem. came to 7%.

For `COc1nc(N(C)C)nc(OC)c1NC(=O)c1ccc(Cc2cc3c(cc2C)C(C)(C)CCC3(C)C)o1` [Example B2, 5-(3,5,5,8,8-Pentamethyl-5,6,7,8-tetrahydro-naphthalen-2-ylmethyl)-furan-2-carboxylic Acid (dimethylamino-dimethoxy-pyrimidin-5-yl)-amide], the Ki was found to be 3.4 nM at mouse GnRH receptors and 1.8 nM at human GnRH receptors. In “Rat plasma % remain”, the “Rat plasma % remain” value is recorded as 83%. Moreover, the “Human % rem. 30′” value in data set [1] was 40%. The Monkey % rem. in data set [2] was 12%.

Regarding `COc1nc(OC)c(NC(=O)c2ccc(Cc3cc4c(cc3C)C(C)(C)CCC4(C)C)o2)c(OC)n1` [Example C1, 5-(3,5,5,8,8-Pentamethyl-5,6,7,8-tetrahydro-naphthalen-2-ylmethyl)-furan-2-carboxylic Acid (2,4,6-trimethoxy-pyrimidin-5-yl)-amide], the inhibitory constant (Ki) at mouse GnRH receptors was 0.42 nM; at human GnRH receptors, 0.55 nM. In addition, the “Rat plasma % remain” value in the data set “Rat plasma % remain” was found to be 100%. The “Human % rem. 30′” value in data set [1] worked out at 35%. Further, the Monkey % rem. in data set [2] was found to be 0%.

The values are drawn from patent US6833372B2, “Non-peptide GnRH agents, Pharmaceutical compositions, and methods for their use” (Pfizer, Inc., priority 2002, dated 2004).
